Reference: patent publication US6566047B1, “Method for identifying neurite-growth promoting agents” (The Regents of the University of Colorado, priority 1998, dated 2003)

Tests used:
[1] = test system: AT-2 cells; test: Pseudopod length / retraction assay, AT-2 cells; assay type: cell-based, rat; conditions: AA even at 10^−1M
Method: Pseudopod Morphometry. To study the effects of various agents on pseudopods on a short-term basis, we measured pseudopod lengths. Cells plated in 35-mm diameter dishes at low density (1×10^4 per dish) were incubated overnight, tie medium was changed, and the experiments were run four hours later. First, cultures were shifted to serum-free medium, which was replaced one hour later by serum-free medium with or without the various agents (thrombin, AA or HETEs). Care was taken to avoid heat and light inactivation of the eicosanoids. Culture dishes were placed on a Zeiss inverted microscope equipped with a heated stage and viewed with a 16×phase contrast objective lens. Randomly selected fields of the cultures, containing generally about 20 cells each, were recorded, digitized and stored in the computer at the onset of the experiment and at different times thereafter.
In some cases, individual cells were monitored over different periods of time immediately after introduction of the reagent, either by mixing it into the medium or by applying it locally to one end of the cell. Local application was done with a “puffer” system that expels microliter amounts of the desired solution from a micromanipulator-controlled micropipette tip. Cell morphology was recorded, and the captured images were analyzed with a Power Macintosh computer using NIH Image. Cell process length was measured from the center of the nucleus to the end of the process. Characterization of the frequencies of pseudopod lengths, at a fixed time for each of a sequence of concentrations of reagent, utilized a gamma regression model with an inverse quadratic linear predictor (McCullagh and Nelder, Generalized Linear Models 2d ed., pp. 291-292 (Chapman & Hall, 1989), separately fit to each concentration data set. Although no formal goodness-of-fit tests were carried out, in virtually every case there was good visual representation of the pattern of response (see FIG. 14). Most data, however, are shown as whisker-box plots, where the center point represents the 50%, the ends of the box the […] and 75%, and the “whiskers” the 5% and 95% quantiles (e.g., FIG. 11). Statistical comparisons of pseudopod lengths for different treatments were done by standard non-parametric techniques (Wilcoxon Rank Sum or Kruskal-Wallis Tests), as judged appropriate. Polynomial curve fittings were done by standard least-squares techniques. Statistical analyses and graphing were done with the use of SAS procedures: Reg, Phreg, Nparlway and Plot (SAS institute Inc., Cary, N.C.).

[2] = test system: growth cone PLA2; test: PLA2 assay in growth cone particles (GCPs); assay type: biochemical, rat; conditions: for net activity (pmol/min/mg protein), GCPs: Table 3a, 100 nM
Method: Growth Cone Particle (GCP) Isolation. GCPs were prepared as described by Pfenninger et al. (1983) and modified by Lohse et al., Dev. Brain Res., 96:38-96 (1996). Briefly, 18-day fetal brains were homogenized in approximately 8 volumes of 0.32 M sucrose containing 1 mM MgCl2, 2 mM TES buffer, pH 7.3, and 3 μM aprotinin. A low-speed supernatant (1,660 g×15 min) was loaded onto a discontinuous sucrose density gradient With steps of 0.83 M and 2.66 M sucrose containing MgCl2 and TES. The gradients were spun to equilibrium at 242,000 g for 40 min in a vertical rotor (Vti50, Beckman). The GCP fraction at the 0.32/0.83 M sucrose interface was collected and used for the experiments described below.
All assays were run in triplicate.

[3] = test system: MAT-Lu cells; test: Pseudopod morphometry (pseudopod length assay), MAT-Lu cells; assay type: cell-based, rat
How it was run: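 Cells plated at 1×10^4 per 35-mm dish overnight, shifted to serum-free medium 1 h, then exposed to thrombin, AA or HETEs in medium or by local micropipette puff. Phase-contrast images over time at heated stage; length measured from nucleus centre to process tip, analysed by gamma regression and non-parametric tests.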

[4] = test system: 12-Lox; test: Eicosanoid (HETE) generation in GCPs; assay type: biochemical, rat
Method: Eicosanoid Assays. Eicosanoid production in GCPs was measured by metabolic labelling from ^14C-AA or ^14C-AA-PC or by mass spectrometric detection. […] To measure Lox activity directly, without PLA2 involvement, ^3H-AA was the substrate of choice. Reactions were stopped by the addition of chloroform/methanol as for the phospholipase assays. Reaction products were extracted as described by Birkle et al., Neuromethods, vol. 7, pp.227-244 (Humana Press, N.J. 1988), spotted on pre-activated si gel 60 TLC plates, and the plates developed in the upper phase of ethyl acetate/isooctane/acetic acid/water (100:60:20:100). AA and HETEs were identified by co-migration with standards. Appropriate bands were counted by liquid scintillation spectrometry.
For mass-spectrometric (MS) identification of HETEs, two different strategies were pursued:
(1) the appropriate bands from non-labelled samples (PC substrate) were scraped from the TLC plate into ether/methanol (9:1) and stored under N2 at −20° C. Authentic 12(S)-HETE, run alongside in the same manner, was used as a standard. Just prior to analysis, samples were passed over an SPE filter to eliminate silica particles, dried under argon, resuspended in 500 μl ethanol, and injected (at 3 μl/min) into a Finnigan LCQ quadrupole ion trap mass spectrometer (Finnigan MAT, San Jose, Calif.) equipped with an electrospray ionization source. All spectra were acquired at a capillary temperature of 80° C., and ion guide voltages were tuned to maximize the abundance of the deprotonated ion species [M-H]^− in negative mode. In order to generate a spectrum, typically 100 single scans were averaged.
(2) For the other strategy (liquid chromatography/tandem MS, LC/MS^2), the reaction substrate consisted of 3.5 μM AA, with the addition of 3.5 μM deuterated AA (AA-D8) plus 1 μCi ^3H-AA to track reaction products by mass and radioactivity, respectively. Reactions were stopped with ice-cold ethanol, the mixtures kept overnight at −20° C. under N2, and the proteins spun out The supernatants were diluted with H2O and loaded onto 1-ml C18 Sep-Pak columns (Varian). After washing with H2O, eicosanoid was eluted with 2 ml methanol. These samples were resolved by reverse-phase HPLC, and the eluted fractions analyzed by tandem MS on-line (MacMillan and Murphy, 1995). Collision-induced decomposition of HETE isomers produced characteristic fragments that were identified at the second MS stage.

[5] = test system: cPLA2; test: cPLA2 activation in AT-2 cells; assay type: biochemical, rat
Method: FIG. 9. Thrombin activation of cPLA2 in AT-2 cells incubated with either ^14C-AA-PI, -PC or -PE as substrate, for 10 min at 37° C. Released AA and diacylglycerol were isolated and counted.

**Q.** With “thrombin: potent growth cone repellent; commercially available thrombin (Sigma); rat thrombin in Boyden assays” as the substance, how does the “pseudopod retraction response of AT-2 cells” value [1] read?
**A.** The value was “essentially did not respond”.

**Q.** What about the “concentration at which PLA2 activation saturates” value ([2]; AA release from PI) of the same substance?
**A.** Its value is “about 250 nM”.

**Q.** What about the “net activity (pmol/min/mg protein), GCPs” value ([2]; substrate PE) of the same substance?
**A.** Its value is 210.2 ± 4.8 pmol/min/mg protein.

**Q.** What about the “net activity (pmol/min/mg protein), GCPs” value ([2]; substrate PI) of the same substance?
**A.** The value was 262 ± 47 pmol/min/mg protein.

**Q.** What about the “net activity (pmol/min/mg protein), no DTT” value ([2]; Table 3b, GCPs, substrate PI, thrombin 100 nM) of the same substance?
**A.** Its value is 221 ± 39.9 pmol/min/mg protein.

**Q.** What about the “net activity (pmol/min/mg protein), 50 nM DTT” value ([2]; Table 3b, GCPs, substrate PI, thrombin 100 nM or control) of the same substance?
**A.** The value was 223 ± 53.4 pmol/min/mg protein.

**Q.** And the “net activity (pmol/min/mg protein)” value ([2]; Table 3c, GCPs, substrate PI, BDNF 100, IGF-1 0.75, insulin 1, thrombin 200 nM, control 159 ± 6.2)?
**A.** Its value is 355 ± 28.0 pmol/min/mg protein.

**Q.** What about the “stimulation of PC-hydrolyzing cPLA2 (14C-AA release from PC)” value ([2]; thrombin 100 nM, GCPs) of the same substance?
**A.** The value was “about 7 fold”.

**Q.** What about the “stimulation of cPLA2-PE (14C-AA release from PE)” value ([2]; thrombin 100 nM, GCPs) of the same substance?
**A.** Its value is about 7 fold.

**Q.** What about the “stimulation of cPLA2-PI (14C-AA release from PI)” value ([2]; thrombin 100 nM, GCPs) of the same substance?
**A.** The value was “about 5 fold”.

**Q.** And the “stimulation of PC-hydrolyzing cPLA2 (14C-AA release from PC)” value ([2]; thrombin 100 nM, GCPs, listed as Thrombin)?
**A.** The value was about 7 fold.

**Q.** What about the “time to pseudopod retraction after addition to cells in culture dish” value [3] of the same substance?
**A.** The value was 5 to 10 min.

**Q.** What about the “effect of agent alone on pseudopod length” value ([3]; typically 15 min exposure) of the same substance?
**A.** The value was “caused pseudopod shortening in MAT-Lu cells within minutes of administration”.

**Q.** And the “effect on HETE production from AA” value ([4]; 3H-AA substrate)?
**A.** Its value is “does indeed stimulate HETE production from AA”.

**Q.** What about the “increase of radioactivity co-migrating with 12-HETE above control” value ([4]; 14C-AA-PC substrate, thrombin 100 nM) of the same substance?
**A.** Its value is “approximately 2.5 fold”.

**Q.** And the “increase of MS peak at m/z 381 in TLC band co-migrating with 12(S)-HETE” value ([4]; GCPs first stimulated with thrombin)?
**A.** The value was about 2 fold.

**Q.** And the “increase in generation of compound co-migrating with 12(S)-HETE from 14C-AA-labelled phospholipid, relative to controls” value ([4]; growth cones stimulated with thrombin)?
**A.** Its value is 4-8 fold.

**Q.** What about the “stimulation of cPLA2, PC substrate” value [5] of the same substance?
**A.** Its value is “over 100 fold”.

**Q.** And the “stimulation of cPLA2, PE substrate” value [5]?
**A.** The value was “about 30 fold”.

**Q.** And the “stimulation of cPLA2, PI substrate” value [5]?
**A.** The value was “over 100 fold”.
